Experimental data: patent US20200256869A1, “SYSTEMS AND METHODS FOR THE ASSESSMENT OF G-PROTEIN ACTIVATION” (UNIVERSITÉ DE MONTRÉAL, priority 2017, published 2020)

What was measured:
Type in all cases: cell-based
[1] = biological target: T1, D1R (Homo sapiens, UniProt P21728); experiment: Gz activation by D1R, Rap1GAP (SSS-AAA)-RlucII translocation to PM (BRET)
T1 construct: expressed in transfected cells; host or cells: HEK293
Experimental: (§1) Cells were then directly seeded in 96-well plates pre-treated or not with poly-L-ornithine hydrobromide at a density of 35 000 cells per well. All experiments read in the Spark 10M reader were performed using non-treated plates.
(§2) BRET measurements 48-hours post transfection, cells were washed twice with pre-warmed Tyrode's buffer (140 mM NaCl, 2.7 mM KCl, 1 mM CaCl2, 12 mM NaHCO3, 5.6 mM D-glucose, 0.5 mM MgCl2, 0.37 mM NaH2PO4, 25 mM HEPES, pH 7.4) before being stimulated with various concentrations of ligands at either room temperature (RT) or 37° C., as indicated. The cell-permeable substrate, coelenterazine Purple I was added at a final concentration of 1 μM in Tyrode's buffer for at least 6 min (at 37° C.) to 10min (at RT) before BRET measurements.
(§3) Data Analysis. Estimation of the EC50 values were calculated using the GraphPad® Prism curve fitting program. The curves presented throughout this study, representing the best fits, and were also generated using this GraphPad® Prism program.

[2] = biological target: T2, D5R (Homo sapiens, UniProt P21918); experiment: Gz activation by D5R, Rap1GAP (SSS-AAA)-RlucII translocation to PM (BRET)
T2 construct: expressed in transfected cells; host or cells: HEK293
T2 sequence (P21918 whole entry): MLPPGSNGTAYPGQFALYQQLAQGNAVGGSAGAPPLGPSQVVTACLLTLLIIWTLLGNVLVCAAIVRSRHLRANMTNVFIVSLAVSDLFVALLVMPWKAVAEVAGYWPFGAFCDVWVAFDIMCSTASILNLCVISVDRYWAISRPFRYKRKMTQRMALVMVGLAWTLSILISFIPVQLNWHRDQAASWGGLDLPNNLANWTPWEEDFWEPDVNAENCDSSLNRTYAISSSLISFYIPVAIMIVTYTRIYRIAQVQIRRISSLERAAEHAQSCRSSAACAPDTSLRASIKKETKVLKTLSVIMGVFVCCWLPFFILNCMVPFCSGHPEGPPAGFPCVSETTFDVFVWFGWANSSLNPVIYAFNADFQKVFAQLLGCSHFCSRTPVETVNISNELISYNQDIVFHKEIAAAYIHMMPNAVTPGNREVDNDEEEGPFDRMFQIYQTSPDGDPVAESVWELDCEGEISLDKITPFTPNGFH
Experimental: as §1, §2, §3

[3] = biological target: T3, thromboxane receptor (TPαR) (Homo sapiens, UniProt P21731); experiment: TPαR-mediated G12 activation at the PM, PDZRG-RlucII BRET
T3 construct: host or cells: HEK293
T3 sequence (P21731 1-343): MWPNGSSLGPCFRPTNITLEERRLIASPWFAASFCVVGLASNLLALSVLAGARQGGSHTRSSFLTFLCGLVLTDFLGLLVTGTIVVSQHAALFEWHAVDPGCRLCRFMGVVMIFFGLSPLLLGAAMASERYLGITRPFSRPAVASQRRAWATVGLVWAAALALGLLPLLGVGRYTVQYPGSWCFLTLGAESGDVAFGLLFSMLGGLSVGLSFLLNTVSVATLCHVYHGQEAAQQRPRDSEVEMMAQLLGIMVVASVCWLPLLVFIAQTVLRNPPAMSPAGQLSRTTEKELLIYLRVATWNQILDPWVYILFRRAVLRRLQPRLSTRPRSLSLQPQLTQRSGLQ
Source text: (§4) FIGS. 4D and 4E show DRCs of TPαR ligands on G12 (FIG. 4D) and 13 (FIG. 4E) activation at the PM using PDZRG-Rlucll. HEK293 cells cotransfected with thromboxane receptor (TPαR), PDZRG-Rlucll, rGFP-CAAX were stimulated with known full agonists (U46619, I-BOP, CTA2), with a partial agonist (U51605) and the antagonists I-SAP and SQ 29,558. Results were normalized and presented as % of I-BOP response (n=4) +/−SEM.
(§5) Transfection using Poly(ethylenimine) (PEI): Two days before the experiments, HEK293 cells were washed with PBS containing no calcium or magnesium, detached and transfected with the indicated plasmids using PEI as a transfecting agent (at a ratio of 3 to 1, PEI/DNA). Cells were then directly seeded in 96-well plates pre-treated or not with poly-L-ornithine hydrobromide at a density of 35 000 cells per well. All experiments read in the Spark 10M reader were performed using non-treated plates.
(§6) BRET measurements 48-hours post transfection, cells were washed twice with pre-warmed Tyrode's buffer (140 mM NaCl, 2.7 mM KCl, 1 mM CaCl2, 12 mM NaHCO3, 5.6 mM D-glucose, 0.5 mM MgCl2, 0.37 mM NaH2PO4, 25 mM HEPES, pH 7.4) before being stimulated with various concentrations of ligands at either room temperature (RT) or 37° C., as indicated. The cell-permeable substrate, coelenterazine Purple I was added at a final concentration of 1 μM in Tyrode's buffer for at least 6 min (at 37° C.) to 10min (at RT) before BRET measurements. Measurements were either taken on a Spark 10M reader (Tecan Life Sciences; donor: 360 nm/380 nm & acceptor: 505 nm/570 nm), a LB 941 multimode plate reader (Berthold Technologies; donor: 400/470-nm and acceptor: 515/520-nm filters) or a Synergy Neo (Biotek: (donor: 400/480 nm, acceptor: 515/530 nm). The BRET signal was determined by calculating the ratio of the light intensity emitted by the rGFP (acceptor) over the light intensity emitted by the Rlucll (donor). All the BRET measurements were performed at 37° C. in the Tristar reader (FIGS. 1-2M & FIGS. 2R-7F), at RT in a Spark 10M reader (FIGS. 2N-2Q & FIGS. 8B-8S) or at RT in a Synergy Neo (FIGS. 8T-8X).

[4] = biological target: T3, thromboxane receptor (TPαR); experiment: TPαR-mediated G13 activation at the PM, PDZRG-RlucII BRET
Source text: as §4, §5, §6

[5] = biological target: T3, thromboxane receptor (TPαR); experiment: TPαR-mediated G12 activation at the PM, P115RG-RlucII BRET
Source text: (§7) FIGS. 5B and 5C show DRCs of TPαR ligands on G12 (FIG. 5B) and G13 (FIG. 5C) activation at the PM using P115RG-Rlucll. HEK293 cells cotransfected with thromboxane receptor (TPαR), P115RG-Rlucll, rGFP-CAAX were stimulated with U46619, I-BOP, CTA2, U51605, I-SAP and SQ 29,558. Results were normalized and presented as % of I-BOP response (n=4) +/−SEM.
as §5, §6

[6] = biological target: T3, thromboxane receptor (TPαR); experiment: TPαR-mediated G13 activation at the PM, P115RG-RlucII BRET
Source text: as §7, §5, §6

[7] = biological target: T3, thromboxane receptor (TPαR); experiment: TPαR-mediated Gq activation at the PM, P63RG-RlucII BRET
Source text: (§8) FIGS. 6J-6M show DRCs of TPαR ligands on Gq (FIG. 6J), G11 (FIG. 6K), G14 (FIG. 6L) and G15 (FIG. 6M) activation at the PM using P63RG-Rlucll under the optimal conditions determined in FIGS. 6B-6E. HEK293 cells cotransfected with thromboxane receptor (TPαR), P63RG-Rlucll, rGFP-CAAX were stimulated with U46619, I-BOP, CTA2, U51605, I-SAP and SQ 29,558. Results were normalized and presented as % of I-BOP response (between n=3 and n=5) +/−SEM.
as §5, §6

[8] = biological target: T3, thromboxane receptor (TPαR); experiment: TPαR-mediated G11 activation at the PM, P63RG-RlucII BRET
Source text: as §8, §5, §6

[9] = biological target: T3, thromboxane receptor (TPαR); experiment: TPαR-mediated G14 activation at the PM, P63RG-RlucII BRET
Source text: as §8, §5, §6

[10] = biological target: T3, thromboxane receptor (TPαR); experiment: TPαR-mediated G15 activation at the PM, P63RG-RlucII BRET
Source text: as §8, §5, §6

[11] = biological target: T4, D2R (Homo sapiens, UniProt P14416); experiment: Gz activation by D2R, Rap1GAP (SSS-AAA)-RlucII translocation to PM (BRET)
T4 construct: expressed in transfected cells; host or cells: HEK293
T4 sequence (P14416 whole entry): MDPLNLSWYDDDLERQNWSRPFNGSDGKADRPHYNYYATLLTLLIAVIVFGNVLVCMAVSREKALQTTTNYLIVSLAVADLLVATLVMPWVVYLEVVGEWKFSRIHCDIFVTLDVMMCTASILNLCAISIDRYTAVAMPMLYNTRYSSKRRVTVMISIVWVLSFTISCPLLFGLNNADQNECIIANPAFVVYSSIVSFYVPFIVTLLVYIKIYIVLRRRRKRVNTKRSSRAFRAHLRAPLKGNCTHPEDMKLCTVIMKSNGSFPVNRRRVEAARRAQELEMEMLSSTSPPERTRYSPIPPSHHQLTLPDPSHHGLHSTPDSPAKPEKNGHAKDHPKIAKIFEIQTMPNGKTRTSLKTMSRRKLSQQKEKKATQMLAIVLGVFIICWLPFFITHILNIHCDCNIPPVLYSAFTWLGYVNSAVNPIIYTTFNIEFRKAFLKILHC
Experimental: as §1, §2, §3

[12] = biological target: T5, D3R (Homo sapiens, UniProt P35462); experiment: Gz activation by D3R, Rap1GAP (SSS-AAA)-RlucII translocation to PM (BRET)
T5 construct: expressed in transfected cells; host or cells: HEK293
T5 sequence (P35462 whole entry): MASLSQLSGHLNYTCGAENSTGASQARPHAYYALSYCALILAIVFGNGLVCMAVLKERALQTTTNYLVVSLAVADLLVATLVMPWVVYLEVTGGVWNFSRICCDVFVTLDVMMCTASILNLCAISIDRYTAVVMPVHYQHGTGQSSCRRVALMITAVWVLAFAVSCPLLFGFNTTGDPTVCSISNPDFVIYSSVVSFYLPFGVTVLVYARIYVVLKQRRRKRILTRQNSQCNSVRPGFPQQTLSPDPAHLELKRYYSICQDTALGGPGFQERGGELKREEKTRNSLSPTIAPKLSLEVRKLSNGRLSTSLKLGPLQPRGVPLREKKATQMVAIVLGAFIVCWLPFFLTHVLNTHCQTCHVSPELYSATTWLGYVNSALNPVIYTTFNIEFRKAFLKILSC
Experimental: as §1, §2, §3

[13] = biological target: T6, Dopamine D4 receptor (D4R) (Homo sapiens, UniProt P21917); conditions: HEK293, Rap1GAP (SSS-AAA)-RlucII, rGFP-CAAX, Gz, read-out: EC50, Gz activation
T6 construct: signal peptide […]; host or cells: HEK293
T6 sequence (P21917 1-419): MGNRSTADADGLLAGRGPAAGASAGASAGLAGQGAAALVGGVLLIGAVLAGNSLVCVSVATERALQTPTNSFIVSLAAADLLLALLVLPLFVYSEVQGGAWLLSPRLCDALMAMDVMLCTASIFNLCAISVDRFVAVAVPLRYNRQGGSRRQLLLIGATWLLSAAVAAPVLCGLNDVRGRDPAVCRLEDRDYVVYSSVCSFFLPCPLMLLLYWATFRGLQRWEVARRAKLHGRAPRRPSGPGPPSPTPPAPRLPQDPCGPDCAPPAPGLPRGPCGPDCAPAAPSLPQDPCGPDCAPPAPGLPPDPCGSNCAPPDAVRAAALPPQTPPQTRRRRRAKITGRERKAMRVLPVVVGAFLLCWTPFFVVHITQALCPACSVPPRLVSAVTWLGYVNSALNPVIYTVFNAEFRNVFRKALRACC
Experimental: as §1, §2, §3

T1 sequence (P21728 whole entry): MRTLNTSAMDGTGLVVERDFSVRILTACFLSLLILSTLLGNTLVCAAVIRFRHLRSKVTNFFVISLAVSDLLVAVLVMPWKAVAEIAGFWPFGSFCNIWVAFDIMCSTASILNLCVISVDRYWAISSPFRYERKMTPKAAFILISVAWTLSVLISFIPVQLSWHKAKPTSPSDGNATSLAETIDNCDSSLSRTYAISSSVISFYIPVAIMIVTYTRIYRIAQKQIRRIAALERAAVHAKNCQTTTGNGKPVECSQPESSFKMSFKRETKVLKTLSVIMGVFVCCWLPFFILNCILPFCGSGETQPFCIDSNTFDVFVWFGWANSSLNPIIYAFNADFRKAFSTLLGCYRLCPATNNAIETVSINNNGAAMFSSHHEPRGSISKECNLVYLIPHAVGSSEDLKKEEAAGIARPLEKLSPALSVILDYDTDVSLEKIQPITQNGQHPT

SMILES	agonist properties (Gz activation), in words [1]	agonist properties (Gz activation), in words [2]	G12 activation, agonist character in words [3]	G13 activation, efficacy ([4]; normalized to I-BOP response)	G12 activation, agonist character in words [5]	G13 activation, efficacy ([6]; normalized to I-BOP response)	Gq activation, agonist character in words [7]	Gq activation, efficacy ([7]; rGFP-CAAX)	G11 activation, agonist character in words [8]	G14 activation, agonist character in words [9]	G15 activation, agonist character in words [10]	G13 activation, agonist character in words [4]	G13 activation, agonist character in words [6]	agonist properties (Gz activation), in words [11]	agonist properties (Gz activation), in words [12]	EC50 ([12]; HEK293, Rap1GAP (SSS-AAA)-RlucII, rGFP-CAAX, Gz) [nM]	EC50 [13] [nM]
Cc1c(C2CCN(CCc3ccccc3)CC2)noc1-c1ccc(Cl)cc1 [L741,742]	did not show agonist nor inverse properties	did not show agonist nor inverse properties	–	–	–	–	–	–	–	–	–	–	–	–	–	–	–
CC1(C)[C@@H]2C[C@H](NS(=O)(=O)c3ccc(I)cc3)[C@@H](C/C=C\CCCC(=O)O)[C@H]1C2 [I-SAP]	–	–	fails to induce significant G12 activation	53 % of Max	neutral	19 % of Max	fail to induce significant activation	7 % of I-BOP max response	fail to induce significant activation	fail to induce significant activation	fail to induce significant activation	–	–	–	–	–	–
CCCCC[C@H](O)/C=C/[C@H]1CC2CC(C2)[C@@H]1C/C=C\CCCC(=O)O [CTA2]	–	–	full agonists	–	full agonists	–	full agonists	–	full agonists	full agonists	full agonists	full agonists	full agonists	–	–	–	–
O=C(O)CCC/C=C\C[C@@H]1[C@@H](/C=C/[C@@H](O)COc2ccc(I)cc2)[C@H]2CC[C@@H]1O2 [I-BOP]	–	–	full agonists	–	full agonists	–	full agonists	–	full agonists	full agonists	full agonists	full agonists	full agonists	–	–	–	–
COc1ccccc1N1CCN(CCN(C(=O)C2CCCCC2)c2ccccn2)CC1 [WAY-100635]	only showed agonist properties on D4R	only showed agonist properties on D4R	–	–	–	–	–	–	–	–	–	–	–	only showed agonist properties on D4R	only showed agonist properties on D4R	–	–
O=C(O)CCC/C=C\C[C@@H]1[C@H](CNNC(=O)Nc2ccccc2)[C@H]2CC[C@@H]1O2 [SQ 29,558]	–	–	not acting as a TPαR agonist	–	not acting as a TPαR agonist	–	fail to induce significant activation	–	fail to induce significant activation	fail to induce significant activation	fail to induce significant activation	not acting as a TPαR agonist	not acting as a TPαR agonist	–	–	–	–
CCCCC[C@H](O)/C=C/[C@@H]1[C@@H](C/C=C\CCCC(=O)O)[C@H]2CO[C@@H]1C2 [U46619]	–	–	full agonists	–	full agonists	–	full agonists	–	full agonists	full agonists	full agonists	full agonists	full agonists	–	–	–	–
Cc1cccc(NC(=O)CN2CCC(c3ccccn3)CC2)c1 [A412,997]	–	–	–	–	–	–	–	–	–	–	–	–	–	–	–	281	0.04
